Reference: PubChem BioAssay (NCI)
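Tested at 5 concentrations; 48 h exposure; 96-well plates; endpoints linearly interpolated, else capped at highest concentration. Abbreviation: GI50, concentration required for 50% inhibition of growth. TGI: total growth inhibition.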

How the values were obtained:
Experiment in all cases: inhibition of tumour cell growth, NCI panel, 48 h
[1] = tested on: 786-0 renal
[2] = tested on: A498 renal
[3] = tested on: A549 NSCLC
[4] = tested on: ACHN renal
[5] = tested on: CAKI-1 renal
[6] = tested on: CCRF-CEM leukemia
[7] = tested on: COLO 205 colon
[8] = tested on: DU-145 prostate
[9] = tested on: EKVX NSCLC
[10] = tested on: HCC-2998 colon
[11] = tested on: HCT-116 colon
[12] = tested on: HCT-15 colon
[13] = tested on: HL-60(TB) leukemia
[14] = tested on: HOP-62 NSCLC
[15] = tested on: HOP-92 NSCLC
[16] = tested on: HS 578T breast
[17] = tested on: HT29 colon
[18] = tested on: IGROV1 ovarian
[19] = tested on: K-562 leukemia
[20] = tested on: KM12 colon
[21] = tested on: LOX IMVI melanoma
[22] = tested on: M14 melanoma
[23] = tested on: MALME-3M melanoma
[24] = tested on: MCF7 breast
[25] = tested on: MDA-MB-231 breast
[26] = tested on: MDA-MB-435
[27] = tested on: MOLT-4 leukemia
[28] = tested on: NCI-H226 lung
[29] = tested on: NCI-H23 lung
[30] = tested on: NCI-H460 lung
[31] = tested on: NCI-H522 lung
[32] = tested on: NCI/ADR-RES ovarian
[33] = tested on: OVCAR-3 ovarian
[34] = tested on: OVCAR-4 ovarian
[35] = tested on: OVCAR-5 ovarian
[36] = tested on: OVCAR-8 ovarian
[37] = tested on: PC-3 prostate
[38] = tested on: RPMI-8226 leukemia
[39] = tested on: RXF 393 renal
[40] = tested on: SF-268 CNS
[41] = tested on: SF-295 CNS
[42] = tested on: SF-539 CNS
[43] = tested on: SK-MEL-2 melanoma
[44] = tested on: SK-MEL-28 melanoma
[45] = tested on: SK-MEL-5 melanoma
[46] = tested on: SK-OV-3 ovarian
[47] = tested on: SN12C renal
[48] = tested on: SNB-19 CNS
[49] = tested on: SNB-75 CNS
[50] = tested on: SR leukemia
[51] = tested on: SW-620 colon
[52] = tested on: T-47D breast
[53] = tested on: TK-10 renal
[54] = tested on: U251 CNS
[55] = tested on: UACC-257 melanoma
[56] = tested on: UACC-62 melanoma
[57] = tested on: UO-31 renal
[58] = tested on: BT-549 breast

Clc1cc(Cl)c(OCCCCCCN2CCNCC2)c(Cl)c1
GI50 [1]: 1.73 µM
TGI [1]: 3.24 µM
GI50 [2]: 9.35 µM
TGI [2]: 22.6 µM
GI50 [3]: 10.6 µM
TGI [3]: 25.3 µM
GI50 [4]: 2.44 µM
TGI [4]: 6.11 µM
GI50 [5]: 2.09 µM
TGI [5]: 6.39 µM
GI50 [6]: 1.89 µM
TGI [6]: 4.31 µM
GI50 [7]: 1.82 µM
TGI [7]: 3.58 µM
GI50 [8]: 4.45 µM
TGI [8]: 15.9 µM
GI50 [9]: 9.45 µM
TGI [9]: 22.3 µM
GI50 [10]: 2 µM
TGI [10]: 4.1 µM
GI50 [11]: 1.67 µM
TGI [11]: 3.19 µM
GI50 [12]: 1.82 µM
TGI [12]: 4.09 µM
GI50 [13]: 1.86 µM
TGI [13]: 3.82 µM
GI50 [14]: 10.6 µM
TGI [14]: 26 µM
GI50 [15]: 2.32 µM
TGI [15]: 7.64 µM
GI50 [16]: 3.35 µM
TGI [16]: 15.2 µM
GI50 [17]: 1.96 µM
TGI [17]: 4.3 µM
GI50 [18]: 3.07 µM
TGI [18]: 8.43 µM
GI50 [19]: 1.92 µM
TGI [19]: 4.24 µM
GI50 [20]: 1.8 µM
TGI [20]: 3.6 µM
GI50 [21]: 1.75 µM
TGI [21]: 3.26 µM
GI50 [22]: 1.84 µM
TGI [22]: 3.65 µM
GI50 [23]: 2.19 µM
TGI [23]: 5.06 µM
GI50 [24]: 1.89 µM
TGI [24]: 4.2 µM
GI50 [25]: 2.17 µM
TGI [25]: 4.53 µM
GI50 [26]: 2.02 µM
TGI [26]: 4.23 µM
GI50 [27]: 2.04 µM
TGI [27]: 4.88 µM
GI50 [28]: 12.3 µM
TGI [28]: 30.8 µM
GI50 [29]: 7.31 µM
TGI [29]: 21.8 µM
GI50 [30]: 2.03 µM
TGI [30]: 4.15 µM
GI50 [31]: 11.1 µM
TGI [31]: 25.4 µM
GI50 [32]: 8.86 µM
TGI [32]: 26.1 µM
GI50 [33]: 2.76 µM
TGI [33]: 9.05 µM
GI50 [34]: 3.48 µM
TGI [34]: 15.1 µM
GI50 [35]: 2.82 µM
TGI [35]: 8.42 µM
GI50 [36]: 3.36 µM
TGI [36]: 12.4 µM
GI50 [37]: 1.8 µM
TGI [37]: 4.03 µM
GI50 [38]: 2.11 µM
TGI [38]: 4.62 µM
GI50 [39]: 1.7 µM
TGI [39]: 5.07 µM
GI50 [40]: 5.85 µM
TGI [40]: 21.1 µM
GI50 [41]: 1.81 µM
TGI [41]: 3.91 µM
GI50 [42]: 2.27 µM
TGI [42]: 5.71 µM
GI50 [43]: 5.52 µM
TGI [43]: 18.1 µM
GI50 [44]: 2.33 µM
TGI [44]: 5.68 µM
GI50 [45]: 1.66 µM
TGI [45]: 3.06 µM
GI50 [46]: 12.9 µM
TGI [46]: 28.6 µM
GI50 [47]: 6.42 µM
TGI [47]: 23.6 µM
GI50 [48]: 3.87 µM
TGI [48]: 16.3 µM
GI50 [49]: 2.64 µM
TGI [49]: 11.7 µM
GI50 [50]: 2.16 µM
TGI [50]: 5.64 µM
GI50 [51]: 1.91 µM
TGI [51]: 3.75 µM
GI50 [52]: 2.01 µM
TGI [52]: 5.06 µM
GI50 [53]: 11.8 µM
TGI [53]: 24.5 µM
GI50 [54]: 2.3 µM
TGI [54]: 6.09 µM
GI50 [55]: 2.77 µM
TGI [55]: 7.4 µM
GI50 [56]: 2.09 µM
TGI [56]: 4.27 µM
GI50 [57]: 2 µM
TGI [57]: 5.44 µM

O=C(COc1cccc(/C=C2\CSc3ccc(Cl)cc3C2=O)c1)c1ccc(Cl)cc1
GI50 [1]: 14.5 µM
TGI [1]: 29.5 µM
GI50 [2]: 44.6 µM
TGI [2]: > 100 µM
GI50 [3]: 77.6 µM
TGI [3]: > 100 µM
GI50 [4]: 12.5 µM
TGI [4]: 25 µM
GI50 [58]: 15 µM
TGI [58]: 28.8 µM
GI50 [5]: 12.2 µM
TGI [5]: 34.1 µM
GI50 [6]: 1.66 µM
TGI [6]: 4.22 µM
GI50 [7]: 5.32 µM
TGI [7]: 20.2 µM
GI50 [8]: 13.6 µM
TGI [8]: 27.9 µM
GI50 [9]: 10.6 µM
TGI [9]: 38 µM
GI50 [10]: 10.7 µM
TGI [10]: 22.6 µM
GI50 [11]: 1.5 µM
TGI [11]: 2.83 µM
GI50 [12]: 1.8 µM
TGI [12]: 3.9 µM
GI50 [13]: 2.69 µM
TGI [13]: 6.87 µM
GI50 [14]: 22.1 µM
TGI [14]: 72.7 µM
GI50 [15]: 0.666 µM
TGI [15]: 9.8 µM
GI50 [16]: 2.46 µM
TGI [16]: 6.91 µM
GI50 [17]: 2.08 µM
TGI [17]: 4.18 µM
GI50 [18]: 3.29 µM
TGI [18]: 20.2 µM
GI50 [19]: 1.83 µM
TGI [19]: 4.53 µM
GI50 [20]: 1.76 µM
TGI [20]: 4.13 µM
GI50 [21]: 1.63 µM
TGI [21]: 3.02 µM
GI50 [22]: 12.4 µM
TGI [22]: 28.2 µM
GI50 [23]: 10.6 µM
TGI [23]: 23.9 µM
GI50 [24]: 2.12 µM
TGI [24]: 10.4 µM
GI50 [25]: 2.93 µM
TGI [25]: 16.5 µM
GI50 [26]: 2.29 µM
TGI [26]: 8.09 µM
GI50 [27]: 1.84 µM
TGI [27]: 4.46 µM
GI50 [28]: 13.4 µM
TGI [28]: 44.4 µM
GI50 [29]: 12.9 µM
TGI [29]: 42.5 µM
GI50 [30]: 23.1 µM
TGI [30]: > 100 µM
GI50 [31]: 1.74 µM
TGI [31]: 4.19 µM
GI50 [32]: 11.3 µM
TGI [32]: 31.4 µM
GI50 [33]: 3.8 µM
TGI [33]: 13.6 µM
GI50 [34]: 9.25 µM
TGI [34]: 23.1 µM
GI50 [35]: 12.5 µM
TGI [35]: 29.8 µM
GI50 [36]: 5.1 µM
TGI [36]: > 100 µM
GI50 [37]: 3.35 µM
TGI [37]: 11.4 µM
GI50 [39]: 14.1 µM
TGI [39]: 34.3 µM
GI50 [40]: 13.6 µM
TGI [40]: 30 µM
GI50 [41]: 4.48 µM
TGI [41]: 18.7 µM
GI50 [42]: 16.8 µM
TGI [42]: 31.2 µM
GI50 [43]: 11.2 µM
TGI [43]: 24.5 µM
GI50 [44]: 15.6 µM
TGI [44]: 30.4 µM
GI50 [45]: 5.33 µM
TGI [45]: 19.6 µM
GI50 [46]: 20.4 µM
TGI [46]: 97.5 µM
GI50 [47]: 8.89 µM
TGI [47]: 22.4 µM
GI50 [48]: 6.57 µM
TGI [48]: 20.8 µM
GI50 [49]: 14 µM
TGI [49]: 37.8 µM
GI50 [51]: 1.67 µM
TGI [51]: 3.09 µM
GI50 [52]: 0.993 µM
TGI [52]: 18.4 µM
GI50 [53]: 29 µM
TGI [53]: 79.9 µM
GI50 [54]: 2.32 µM
TGI [54]: 5.44 µM
GI50 [55]: 13.4 µM
TGI [55]: 30.8 µM
GI50 [56]: 9.04 µM
TGI [56]: 22.5 µM
GI50 [57]: 12 µM
TGI [57]: 27.2 µM
